Measured values reported in patent publication US9988268B2, “Preparation of 2,6- and 2,7-disubstituted anthraquinone derivatives” (BASF SE, priority 2014, dated 2018).
Values after ≈ are worked out from the molar mass of the structure shown. Where two headings read alike, the source gives them in different places.

Assay: Determination of the solubility of anthraquinone derivatives in xylene/diisobutylcarbinol
Type: physicochemical
Conditions: for solubility: mixture of xylene (50 volume-%) and diisobutylcarbinol (50 volume-%), 22° C.; for Solubility (in words): xylene/diisobutylcarbinol solvent system, comparison of anthraquinone derivatives
Procedure: 0.06 ml of a mixture of xylene (50 volume-%) and diisobutylcarbinol (50 volume-%) were added to 1 g of the respective anthraquinone derivative at 22° C. every 60 seconds until the anthraquinone derivative was dissolved completely.

| solubility | Solubility (in words) | solubility (xylene/diisobutylcarbinol mixture (50:50 by volume), organic solvent or mixture, thermodynamic from solid, read-out: Solubility) [mM] | Structure (SMILES) |
| --- | --- | --- | --- |
| insoluble | insoluble | – | Cc1cc2c(cc1C)C(=O)c1cc(C)c(C)cc1C2=O [Comparative Example 6, 2,3,6,7-tetramethylanthracene-9,10-dione] |
| – | poorly soluble | 270 (≈ 63.8 mg/mL) | CCc1ccc2c(c1)C(=O)c1ccccc1C2=O [2-ethylanthraquinone] |
